Reference: patent publication US20220324835A1 (Nurix Therapeutics, Inc., priority 2018, published 2022)
Like-named read-outs stand apart in the source and are kept apart here.

Tested on: primary human NK cells
Assay: NK cell activation assessed by cytokine secretion (coculture with K562 NucRed target cells)
Type: cell-based
Conditions: for fold induction at 0.625 µM: 0.625 μM compound; for fold induction at 2.5 µM: 2.5 μM compound
Method in brief: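 Read-out is cytokine secretion (IFNγ, TNFα, MIP1β; ELISA or Luminex) as fold over coculture without inhibitor, >2.0-fold taken as positive. Donor NK cells, IL-2 primed (60 ng/mL) overnight, received compound 1 h ahead (e.g. 0.1–10 μM, DMSO <0.1%) and were mixed 6 h with K562 NucRed targets at e.g. 5:1, 1:1, 1:5.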

[1] = K562, 1:1 E/T, read-out: IFNγ secretion
[2] = K562, 1:1 E/T, read-out: MIP1β secretion
[3] = K562, 1:1 E/T, read-out: TNFα secretion
[4] = K562, 1:1 E/T, 10 μM, read-out: IFNγ secretion
[5] = K562, 1:1 E/T, 10 μM, read-out: MIP1β secretion
[6] = K562, 1:1 E/T, 10 μM, read-out: TNFα secretion
[7] = K562, 5:1 E/T, read-out: IFNγ secretion
[8] = K562, 5:1 E/T, read-out: MIP1β secretion
[9] = K562, 5:1 E/T, read-out: TNFα secretion
[10] = K562, 5:1 E/T, 10 μM, read-out: IFNγ secretion
[11] = K562, 5:1 E/T, 10 μM, read-out: MIP1β secretion
[12] = K562, 5:1 E/T, 10 μM, read-out: TNFα secretion
[13] = K562, NK cells cocultured with K562 NucRed, 1:1 E/T, read-out: IFNγ secretion, fold change over baseline
[14] = K562, NK cells cocultured with K562 NucRed, 1:1 E/T, read-out: TNFα secretion, fold change over baseline

SMILES	fold induction at 1 µM [1]	fold induction at 1 µM [2]	fold induction at 1 µM [3]	fold induction at 10 µM [4]	fold induction at 10 µM [5]	fold induction at 10 µM [6]	fold induction at 1 µM [7]	fold induction at 1 µM [8]	fold induction at 1 µM [9]	fold induction at 10 µM [10]	fold induction at 10 µM [11]	fold induction at 10 µM [12]	fold induction at 0.625 µM [13]	fold induction at 0.625 µM [14]	fold induction at 2.5 µM [13]	fold induction at 2.5 µM [14]	fold induction at 10 µM (K562, NK cells cocultured with K562 NucRed, 1:1 E/T, 10 μM compound, read-out: IFNγ secretion, fold change over baseline)	fold induction at 10 µM (K562, NK cells cocultured with K562 NucRed, 1:1 E/T, 10 μM compound, read-out: TNFα secretion, fold change over baseline)
C[C@H](Cc1nncn1C)c1cccc(NC(=O)c2ccnc(C(F)(F)F)n2)c1 [Compound 187, (R)-N-(3-(1-(4-methyl-4H-1,2,4-triazol-3-yl)propan-2-yl)phenyl)-2-(trifluoromethyl)pyrimidine-4-carboxamide]	1.01 to 2	1.01 to 2	< 1	2.01 to 5	2.01 to 5	2.01 to 5	2.01 to 5	1.01 to 2	2.01 to 5	> 5	2.01 to 5	> 5						
Cn1cnnc1C(F)(F)[C@](C)(F)c1cccc(N2Cc3c(cccc3C(F)(F)F)C2=O)c1 [Compound 296a, (R)-2-(3-(1,1,2-trifluoro-1-(4-methyl-4H-1,2,4-triazol-3-yl)propan-2-yl)phenyl)-4-(trifluoromethyl)isoindolin-1-one]	1.01 to 2	< 1	< 1	2.01 to 5	< 1	1.01 to 2	< 1	< 1	< 1	1.01 to 2	< 1	< 1						
C[C@H](Cc1nncn1C)c1ccnc(NC(=O)c2cccc(C(F)(F)F)n2)c1 [Compound 302, (R)-N-(4-(1-(4-methyl-4H-1,2,4-triazol-3-yl)propan-2-yl)pyridin-2-yl)-6-(trifluoromethyl)picolinamide]													< 1	1.01 to 2	1.01 to 2	1.01 to 2	2.01 to 5	1.01 to 2
